Assay results taken from patent US20050004018A1, “Use of antitumoral compound in cancer therapy” (priority 2001, published 2005).

What was measured:
mice = details: single or fractionated dose, intravenous; cited from earlier work
human tumor xenografts = details: broad range of in vivo tumor models, including human tumor xenografts in nude mice; cited from earlier work
cancer patients [1] = assay: phase II programme, 24 hour every 3 weeks schedule; assay type: in vivo, human
Procedure: Two schedules (24 hour every 3 weeks and 3 hour every 3 weeks) reached the phase II programme. The phase II programme confirmed the activity against soft tissue sarcoma and ovarian cancer. However, the recommended starting dose for the 3 hour schedule had to be reduced because of serious toxicity. The recommended dose for the 24 hour schedule was 1500 μg /m^2 and the recommended dose for the 3 hour schedule is at present 1300 μg/m^2.
The 3 hour every three weeks schedule has the signifcant advantage of being more confortable for the patient because it reduces the time being spent at the hospital for infusion and monitoring, in particular avoiding overnight stay.

cancer patients [2] = details: cited from earlier work
dogs = details: cited from earlier work
[3] = tested on: soft tissue sarcoma cell lines; details: several soft tissue sarcoma cell lines; cited from earlier work
cancer patients [4] = details: 1-hr intravenous infusion every 3 weeks; cited from earlier work
murine progenitor cells = details: cited from earlier work
[5] = 24 hour infusion, worst grade per patient
[6] = 24 h schedule every three weeks
[7] = Per patient (24 h), number (percent)

ecteinascidin 743 [ET-743]
toxicity (mice): reversible hematological and hepatic toxicity
antitumor activity in vivo (human tumor xenografts): Potent antitumor activity
Alk Phosph, NCI-CTC Grade 1 (cancer patients [1]; [5]): 149 (46.7) Number of patients (%)
Alk Phosph, NCI-CTC Grade 2 (cancer patients [1]; [5]): 29 (9.1) Number of patients (%)
Alk Phosph, NCI-CTC Grade 3 (cancer patients [1]; [5]): 6 (1.9) Number of patients (%)
Bilirubin, NCI-CTC Grade 1 (cancer patients [1]; [5]): 49 (15.3) Number of patients (%)
Bilirubin, NCI-CTC Grade 2 (cancer patients [1]; [5]): 23 (6.9) Number of patients (%)
Bilirubin, NCI-CTC Grade 3 (cancer patients [1]; [5]): 4 (1.3) Number of patients (%)
Gamma GT, NCI-CTC Grade 1 (cancer patients [1]; [5]): 25 (22.9) Number of patients (%)
Gamma GT, NCI-CTC Grade 2 (cancer patients [1]; [5]): 29 (26.6) Number of patients (%)
Gamma GT, NCI-CTC Grade 3 (cancer patients [1]; [5]): 32 (29.4) Number of patients (%)
Gamma GT, NCI-CTC Grade 4 (cancer patients [1]; [5]): 2 (1.8) Number of patients (%)
Hemoglobin, NCI-CTC Grade 0-1 (cancer patients [1]; [5]): 165 (51.6) Number of patients (%)
Hemoglobin, NCI-CTC Grade 2 (cancer patients [1]; [5]): 111 (34.7) Number of patients (%)
Hemoglobin, NCI-CTC Grade 3 (cancer patients [1]; [5]): 33 (10.3) Number of patients (%)
Hemoglobin, NCI-CTC Grade 4 (cancer patients [1]; [5]): 11 (3.4) Number of patients (%)
Neutrophils, NCI-CTC Grade 0-1 (cancer patients [1]; [5]): 103 (32.3) Number of patients (%)
Neutrophils, NCI-CTC Grade 2 (cancer patients [1]; [5]): 54 (16.9) Number of patients (%)
Neutrophils, NCI-CTC Grade 3 (cancer patients [1]; [5]): 92 (28.8) Number of patients (%)
Neutrophils, NCI-CTC Grade 4 (cancer patients [1]; [5]): 70 (21.9) Number of patients (%)
Platelets, NCI-CTC Grade 0-1 (cancer patients [1]; [5]): 260 (81.5) Number of patients (%)
Platelets, NCI-CTC Grade 2 (cancer patients [1]; [5]): 17 (5.3) Number of patients (%)
Platelets, NCI-CTC Grade 3 (cancer patients [1]; [5]): 35 (11.0) Number of patients (%)
Platelets, NCI-CTC Grade 4 (cancer patients [1]; [5]): 7 (2.2) Number of patients (%)
SGOT/AST, NCI-CTC Grade 1 (cancer patients [1]; [5]): 74 (23.2) Number of patients (%)
SGOT/AST, NCI-CTC Grade 2 (cancer patients [1]; [5]): 88 (27.6) Number of patients (%)
SGOT/AST, NCI-CTC Grade 3 (cancer patients [1]; [5]): 120 (37.6) Number of patients (%)
SGOT/AST, NCI-CTC Grade 4 (cancer patients [1]; [5]): 16 (5.0) Number of patients (%)
SGPT/ALT, NCI-CTC Grade 1 (cancer patients [1]; [5]): 62 (19.4) Number of patients (%)
SGPT/ALT, NCI-CTC Grade 2 (cancer patients [1]; [5]): 83 (25.9) Number of patients (%)
SGPT/ALT, NCI-CTC Grade 3 (cancer patients [1]; [5]): 127 (39.7) Number of patients (%)
SGPT/ALT, NCI-CTC Grade 4 (cancer patients [1]; [5]): 30 (9.4) Number of patients (%)
recommended dose (cancer patients [1]; 24 hour schedule, phase II): 1500 μg /m^2
Grade 3-4 ALT (cancer patients [1]; [6]): 49.1%
Grade 3-4 Bilirubin (cancer patients [1]; [6]): 1.3%
Grade 3-4 Creatinine (cancer patients [1]; [6]): 0.7%
Grade 3-4 Creatinine Kinase (cancer patients [1]; [6]): 2.2%
Grade 3-4 Hemoglobin (cancer patients [1]; [6]): 13.7%
Grade 3-4 Neutrophils (cancer patients [1]; [6]): 50.7%
Grade 3-4 Platelets (cancer patients [1]; [6]): 13.2%
Creatinine abnormalities, NCI-CTC Grade 1 (cancer patients [1]; [7]): 76 (23.9)
Creatinine abnormalities, NCI-CTC Grade 2 (cancer patients [1]; [7]): 19 (6.0)
Creatinine abnormalities, NCI-CTC Grade 3 (cancer patients [1]; [7]): 3 (0.9)
Creatinine abnormalities, NCI-CTC Grade 4 (cancer patients [1]; [7]): 2 (0.6)
Grades 1-3 of bilirubin (cancer patients [1]; over 24 hours, % of patients): 23.8%
alkaline phosphatase overall (cancer patients [1]; over 24 hours, % of patients): 57.7%
MTD (cancer patients [2]; 3-hr infusion every 3 weeks): 1800 μg/M^2
RD for Phase II studies (cancer patients [2]; 3-hr infusion every 3 weeks): 1650 μg/M^2
increases of bilirubin G2 or greater (cancer patients [2]; % of treatment courses at the RD): 9%
further toxicity in dogs (dogs; following administration): vomiting and diarrhoea
toxicity (dogs; single or fractionated dose, intravenous, dogs): reversible hematological and hepatic toxicity
IC50 [3]: < 1 pM
maximum tolerated dose (MTD) (cancer patients [4]): 1100 μg/m^2
sensitivity of progenitor cells (murine progenitor cells): equal sensitivity of erythropoid and myeloid cells
